Legend:
[1] = tested on: microtubule detyrosination in keratinocytes; assay: GluTub immunofluorescence of detyrosinated microtubules in zebrafish caudal fin keratinocytes; type: in vivo
Experimental: (§1) The stock solution was divided into 20-30 μl aliquots and stored at −20 °C until use (maximal 6 months). Immediately prior to use, paclitaxel was diluted in Ringer's solution and added to dechorionated larval zebrafish. The larval fish were placed individually or in small groups into wells of a 12-well plate containing the treatment solutions. The control group was 0.05% DMSO. Plates were incubated at 28.5 °C and protected from light. Treatment lengths are indicated in the Drawings, Description of the Drawings, and Examples where appropriate. […] EMD534085, Eg5 inhibitor (MedChemExpress, Cat. No. HY-15000) was diluted in 100% DMSO to make a 10 mM stock solution and stored at −20 °C. […] The solutions were exchanged every 48 hr.
(§2) Larval fish were transferred into […] glass vials and fixed in 4% paraformaldehyde (PFA)/1× Phosphate-buffered saline (PBS) for 1.5 hr at room temperature, with gentle rocking. Following a 5-minute incubation in 1×PBS+0.1% Tween-20 (PBST), zebrafish were permeabilized in 1×PBS+0.1% Triton X-100 for 10-30 min. Larval fish were transferred into 2 ml reaction tubes and incubated in blocking buffer (1×PBST+5% BSA) for 30 min at room temperature, with rocking. Larval fish were further incubated overnight in antibody solution (Millipore Sigma, Cat. No. AB3201, 1:300 rabbit anti-GluTub; Sigma, Cat No. T6793, 1:500 mouse anti-acetylated tubulin) in blocking buffer at 4 °C, on a rotator. The next morning, larval fish were transferred into 6-well plates and washed 4×15 min in 1×PBST at room temperature, with rocking. This was followed by incubation in secondary antibody (goat anti-rabbit Cy5, Abcam, Cat. No. ab97077; goat anti-mouse Cy3, Abcam, Cat. No. ab97035) and 1:10,000 Hoechst 33342 (ThermoFisher Scientific, Cat. No. 62249, 20 mM solution) in blocking buffer for 1 hr at room temperature, with rocking. Fish were covered to avoid bleaching. […]
Fluorescence intensities were measured using the Imaris MATLAB plugin or Fiji. A line was typically placed over the region of interest and the fluorescence automatically quantified. The values were normalized to nuclear (Hoechst33342) fluorescence intensities within the same fish and region to obtain an intensity ratio.
Stabilized microtubules undergo a modification whereby the terminal tyrosine residue was removed, leading to detyrosination (dMT) (Roll-Mecak et al., 2020, Developmental cell 54: 7-20), which was associated with particularly long-term stabilized microtubule populations (Khawaja et al., 1988, The Journal of cell biology 106: 141-149). Exposure of the penultimate glutamate residue can be detected using a GluTub antibody. […]

axonal microtubules = assay: Axonal detyrosination (GluTub) along axon segments in distal caudal fin; type: in vivo, zebrafish; details: EMD534085 alone, wildtype, 96 hr
Experimental: as §2, with “rocking.” for “rocking. This was followed by incubation in secondary antibody (goat anti-rabbit Cy5, Abcam, Cat. No. ab97077; goat anti-mouse Cy3, Abcam, Cat. No. ab97035) and 1:10,000 Hoechst 33342 (ThermoFisher Scientific, Cat. No. 62249, 20 mM solution) in blocking buffer for 1 hr at room temperature, with rocking. Fish were covered to avoid bleaching.”
Axon branch number quantifications were performed by drawing a 50 μm line across the dorsal, medial, and ventral caudal fin edge region at a distance of 100 μm parallel to the fin edge (which was determined to be the most reliable region to quantify distal branch numbers). Axons traversing this line were counted and averaged per treatment group. Axonal fluorescence measurements were taken using the Imaris Spots function by manually placing spots along the axon and using the fluorescence intensity profile measurements MatLab tool.

dfMTs in keratinocytes = assay: dfMT fascicle width; type: in vivo, zebrafish; details: 96 hr
Experimental: as §1
Larval fish were transferred into […] glass vials and fixed in 4% paraformaldehyde (PFA)/1× Phosphate-buffered saline (PBS) for 1.5 hr at room temperature, with gentle rocking. Following a 5-minute incubation in 1×PBS+0.1% Tween-20 (PBST), zebrafish were permeabilized in 1×PBS+0.1% Triton X-100 for 10-30 min. Larval fish were transferred into 2 ml reaction tubes and incubated in blocking buffer (1×PBST+5% BSA) for 30 min at room temperature, with rocking. […]
dfMT thicknesses (defined as the mean width of a given dfMT) was manually measured at high magnification using the Slice mode in Imaris and the Line tool for measuring the distance between two points. […]

peripheral neuropathy = assay: von Frey behavioral testing; type: in vivo, mouse; details: mice, 2 mg/kg paclitaxel i.p. x4
Description: Molecular mechanisms underlying paclitaxel-induced microtubule fasciculation were then investigated. […] Peripheral neuropathy was correlated with these times points using von Frey behavioral testing, which determined that peak neuropathy was present at day 7 (D7). This identified several biological categories during peak neuropathy with the largest clusters being implicated in extracellular matrix organization (e.g. “ECM”, “collagen-containing ECM”, “collagen trimer”) and cell cycle regulation (e.g. “outer kinetochore”, “kinesin complex”, condensed chromosome, centromeric region”, “mitotic spindle”, “microtubules”), consistent with our findings in zebrafish. Interactome analysis using STRING (Szklarczyk et al., 2021, Nucl. Acids Res 49: D605-D612) to predict protein association networks further identified major clusters involved in cell cycle regulation, which contained various kinesins, microtubule and nucleus regulators, as well as one cluster annotated as “disulfide bond”, consistent with a role for oxidative signal activation (Leonard et al., 2011, Current opinion in chemical biology 15: 88-102) (shown in FIG. 3D).

[2] = tested on: microtubule acetylation in keratinocytes; assay: Keratinocyte microtubule acetylation (K40); type: in vivo, zebrafish; details: 22 μM paclitaxel, 96 hr, with and without EMD534085
Experimental: as §2

| SMILES | microtubule detyrosination with Eg5 inhibition ([1]; EMD534085-treated animals, 96 hr) | effect on microtubule fasciculation and detyrosination ([1]; EMD534085 co-administered with 100 nM and 22 μM paclitaxel) | normalized GluTub intensity ratios (axon) (axonal microtubules) | fascicle width of dMTs (dfMTs in keratinocytes; 100 nM paclitaxel) [μm] | fascicle width of dMTs (dfMTs in keratinocytes; 22 μM paclitaxel) [μm] | day of peak neuropathy (peripheral neuropathy) [days] | keratinocyte microtubule acetylation [2] |
| --- | --- | --- | --- | --- | --- | --- | --- |
| CN(C)CCNC(=O)NC[C@H]1CC[C@@H]2[C@H](O1)c1cc(C(F)(F)F)ccc1N[C@H]2c1ccccc1 [EMD534085] | not modified when animals were treated with EMD534085 | rescued microtubule fasciculation but not detyrosination | 2.13±0.13 | – | – | – | – |
| CC(=O)O[C@H]1C(=O)[C@@]2(C)[C@H]([C@H](OC(=O)c3ccccc3)[C@]3(O)C[C@H](OC(=O)[C@H](O)[C@@H](NC(=O)c4ccccc4)c4ccccc4)C(C)=C1C3(C)C)[C@]1(OC(C)=O)CO[C@@H]1C[C@@H]2O [paclitaxel] | – | – | – | 6.0±0.49 | 3.4±0.17 | 7 | an increase in keratinocyte microtubule acetylation after 96 hr paclitaxel treatment with and without EMD534085 |

Reference: patent US20260345584A1, “METHODS AND PHARMACEUTICAL COMPOSITIONS FOR TREATING CHEMOTHERAPY-INDUCED PERIPHERAL NEUROPATHY WITH EG5 INHIBITORS” (UNIVERSITY OF MIAMI, priority 2023, published 2026)
